These results are taken from patent publication US20080267948A1, “Croos-B Structure Binding Compounds” (priority 2005, published 2008).

The target of assay [1] is T1, glycated haemoglobin (Hb-AGE) (Homo sapiens, UniProt P68871+P69905).
T1 construct: purchased Sigma-Aldrich H7379
As to the kind of experiment: ELISA binding of IgIV to immobilized Hb-AGE and inhibition studies. The following applies: 15 μg/ml IgIV, concentration series of competitor. As for the experimental part:
Binding of IgIV was determined using an enzyme linked immunosorbent assay (ELISA) set-up. For this purpose 50 μl/well of potential ligands at indicated concentrations or coat buffer only for control and background measurement purposes, were coated overnight at 4° C., with motion, in 50 mM NaHCO3 pH 9.6. Glycated albumin and Hb (BSA-AGE and Hb-AGE), control BSA and control Hb were coated at 5 μg/ml. The BSA and Hb controls were prepared freshly by dissolving lyophilized proteins at 1 mg/ml in PBS upon resuspending by pipetting, followed by a 30′ period at the roller bank, at room temperature. The protein solutions were centrifuged for 10′ at 16,000*g and diluted in coat buffer. Coat controls were performed with anti-glycated protein antibody, anti-albumin antibody, anti-Hb antibody. The alkaline phosphatase-conjugated anti-human Ig antibodies were controlled by coating the IgIV's and overlaying them the secondary antibodies. After coating the plates were washed twice with 50 mM Tris-HCl pH 7.3, 150 mM NaCl, 0.1% v/v Tween20, and blocked with 175 μl/well Blocking reagent (Roche Diagnostics, Almere, The Netherlands; catalogue number 11112589001), for 1 h at room temperature, with motion. Plates were washed twice and incubated in triplicate with indicated antibodies dilution series, plasma dilution series or controls, including binding buffer only, in the absence or presence of putative inhibitors, in binding buffer; PBS/0.1% v/v Tween20, at 50 μl/well, for 1 h at room temperature, with constant motion. After four wash cycles, secondary antibodies were added to the wells, 50 μl/well, for 45′ at room temperature, with motion. RAMPO and SWARPO were used at 2000 times dilution, goat anti-human IgG antibodies were diluted 3000 times, goat anti-human IgM antibodies were diluted 1000 times. After 5 washes with wash buffer followed by two washes with PBS, binding of antibodies was assessed. […] After 5′ absorbance was read at 405 nm. […] After 5′ absorbance was read at 490 nm. […] Triplicates were averaged and standard deviations calculated. […]
Background: ELISA stands for enzyme-linked immunosorbent assay.

The next assay addresses T2, heat-denatured ovalbumin (Gallus gallus, UniProt P01012).
T2 construct: purchased Sigma A5503
T2 sequence (P01012 1-386): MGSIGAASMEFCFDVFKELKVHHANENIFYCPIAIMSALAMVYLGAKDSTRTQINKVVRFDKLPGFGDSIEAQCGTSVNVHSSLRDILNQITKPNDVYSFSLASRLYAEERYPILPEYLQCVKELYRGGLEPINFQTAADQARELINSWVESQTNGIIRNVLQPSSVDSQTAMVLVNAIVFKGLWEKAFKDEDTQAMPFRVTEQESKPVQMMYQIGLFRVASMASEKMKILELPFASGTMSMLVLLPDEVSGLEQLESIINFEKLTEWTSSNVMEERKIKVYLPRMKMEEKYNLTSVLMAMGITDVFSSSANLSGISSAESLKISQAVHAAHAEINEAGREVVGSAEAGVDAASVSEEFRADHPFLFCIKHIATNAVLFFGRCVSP
The assay is described as follows: Thioflavin T fluorescence of ovalbumin and small compounds. Set-up: species or system chicken. The following applies: 1 mg/ml compound, 1 mg/ml OVA. On the procedure: To establish the enhancement of Thioflavin T fluorescence by ovalbumin preparations, 90 μl of 25 μM ThT-solution in 50 mM Glycine buffer (pH 9.0) was added to 10 μl sample in duplicate wells of black 96-wells plates. Heat-denatured ovalbumin at 1 mg/ml in PBS with no addition, DMSO at a final concentration of 1% v/v, or 1 mg/ml of the compounds listed in Table 7, was used. Compound stocks are 100 mg/ml in DMSO. In addition, ovalbumin at 1 mg/ml with the same additions was first heat denatured and subsequently used in the fluorescence assay. Heat denaturation was according to the protocol given above. Fluorescence of duplicates was measured on a Thermo Fluoroskan Ascent 2.5, at 435 nm excitation and 485 nm emission wavelengths.

The target of assay [2] is T3, tPA/plasminogen (Homo sapiens, UniProt P00750).
T3 construct: purchased Boehringer Ingelheim Actilyse
T3 sequence (P00750 36-562): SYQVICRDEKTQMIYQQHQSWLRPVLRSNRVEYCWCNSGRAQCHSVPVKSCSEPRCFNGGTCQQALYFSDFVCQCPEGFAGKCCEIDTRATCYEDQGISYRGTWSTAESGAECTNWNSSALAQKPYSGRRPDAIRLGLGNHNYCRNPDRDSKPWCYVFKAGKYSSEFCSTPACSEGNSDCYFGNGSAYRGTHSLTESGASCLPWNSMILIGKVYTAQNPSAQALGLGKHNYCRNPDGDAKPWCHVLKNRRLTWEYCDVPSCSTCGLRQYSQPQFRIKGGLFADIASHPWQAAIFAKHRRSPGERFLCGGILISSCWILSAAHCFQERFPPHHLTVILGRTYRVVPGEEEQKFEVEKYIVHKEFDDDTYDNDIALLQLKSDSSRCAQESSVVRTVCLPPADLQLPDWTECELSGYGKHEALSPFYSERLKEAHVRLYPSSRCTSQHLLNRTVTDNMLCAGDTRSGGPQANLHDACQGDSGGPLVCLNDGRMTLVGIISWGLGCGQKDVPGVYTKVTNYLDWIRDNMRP
The assay is described as follows: tPA/plasminogen activation by pre-formed misfolded OVA in the presence of compounds. In kind it is biochemical. The following applies: 80-fold or 160-fold diluted compound and misfolded OVA stocks of 1 mg/ml. On the procedure: […] Negative control was buffer without OVA. […] In addition, it was assessed whether the compounds interfere with absorbance readings at 405 nm, with converted chromogenic substrate. […] The yellow solution is divided over wells of an ELISA plate. […] Signals are compared and related to the control.

For the next assay, the target named is T4, Aβ (Homo sapiens, UniProt P05067, E693Q).
T4 construct: Lyophilized human amyloid-β(1-40) with E22Q mutation ‘Dutch type’; purchased Peptide facility, Dutch Cancer Institute, Amsterdam; host or cells: synthetic peptide
As to the kind of experiment: Binding of Aβ from solution to immobilized small compounds. The following applies: coat 100 μg/ml. On the procedure:
(§1) To test the ability of the twelve selected compounds (see Table 7) to bind to misfolded proteins, […] Greiner Microlon high binding plates, Nunc amino Immobilizer plates and Nunc Maxisorp plates. Compounds were coated in 100 mM NaHCO3 pH 9.6, 50 μl/well, 1 h at room temperature with agitation. As a control, wells were coated with buffer only. After blocking of the plates, wells were overlayed with solutions of 0.1/1/10 μg/ml Hb-AGE or 10/100 μg/ml Aβ, in binding buffer (PBS/0.1% Tween20). After washing, binding of Hb-AGE was assessed by overlaying wells with 1 μg/ml hybridoma antibody 4B5, which binds to glycations(^2), followed by RAMPO. Binding of Aβ was visualized using 500× diluted anti-Aβ antibodies (mouse antibody beta-amyloid Clone 6F/3D #M0872, lot 00003503, DAKOCytomation; β-amyloid (H-43) SC-9129, 200 μg/ml rabbit polyclonal IgG, Santa Cruz Biotechnology) and RAMPO/SWARPO in a 1:1 ratio. Finally, wells were overlayed with OPD/H2O2 solution, and H2SO4, before absorbance readings at 490 nm.

Assay [3] concerns the target T5, Hb-AGE (Homo sapiens, UniProt P68871+P69905).
T5 construct: purchased Sigma-Aldrich H7379
The assay is described as follows: Binding of Hb-AGE from solution to immobilized small compounds. The following applies: coat 100 μg/ml. As for the experimental part:
as §1

A further assay concerns the target T6, ovalbumin (Gallus gallus, UniProt P01012).
T6 construct: purchased Sigma A5503
T6 sequence (P01012 1-386): T2 sequence (P01012 1-386)
As to the kind of experiment: Transmission electron microscopy of ovalbumin heated in the presence of small compounds. Set-up: species or system chicken. The following applies: 1 mg/ml ovalbumin heated with 1 mg/ml compound. As for the experimental part: For TEM analyses grids were prepared according to standard procedures. Ovalbumin samples at 1 mg/ml were applied to 100-mesh copper grids with carbon coated Formvar (Merck, Germany), and subsequently washed with PBS and H2O. Grids were applied to droplets of 2% (m/v) methylcellulose with 0.4% (m/v) uranylacetate pH 4. After a 2-minutes incubation grids were dried on a filter. Images were recorded at 80 kV, at suitable magnifications on a JEM-1200EX electron microscope (JEOL, Japan).

The target of assay [4] is T5, Hb-AGE. The assay is described as follows: ELISA binding of tPA to immobilized Hb-AGE after pre-incubation with compounds. The settings on record: Hb-AGE first overlayed with compound (concentration series), then tPA. As for the experimental part: Compounds were now diluted 10× in PBS/0.1% Tween20 (500 μg/ml compound). […] With the selection, similar binding assays are performed with misfolded OVA and Aβ. Finally, concentration series of the selected compounds are used in the binding studies.

Assay [5] deals with T3, tPA/plasminogen. The assay is described as follows: tPA/plasminogen activation by OVA heated in the presence of compounds (substrate PNAPEP1751). The following applies: 25 μg/ml OVA, 25 μg/ml compound, […] DMSO. Type of assay: biochemical. On the procedure: Heated OVA, either in PBS/1% DMSO (positive control), or in the same buffer in the presence of 1 mg/ml of the compounds, was used 40-fold diluted in the assay. Negative control was buffer without OVA. […] In addition, it was assessed whether the compounds interfere with absorbance readings at 405 nm, with converted chromogenic substrate. […] The yellow solution is divided over wells of an ELISA plate. […] Signals are compared and related to the control.

The test system of assay [6] is misfolded proteins (Hb-AGE, Aβ). As to the kind of experiment: Binding of misfolded proteins from solution to immobilized small compounds (overall). The settings on record: compounds coated on ELISA plates, Hb-AGE or Aβ in solution. On the procedure:
To test the ability of the twelve selected compounds (see Table 7) to bind to misfolded proteins, the compounds were immobilized at 10/100/1000 μg/ml in the wells of 96-wells Greiner Microlon high binding plates, Nunc amino Immobilizer plates and Nunc Maxisorp plates. Compounds were coated in 100 mM NaHCO3 pH 9.6, 50 μl/well, 1 h at room temperature with agitation. As a control, wells were coated with buffer only. After blocking of the plates, wells were overlayed with solutions of 0.1/1/10 μg/ml Hb-AGE or 10/100 μg/ml Aβ, in binding buffer (PBS/0.1% Tween20). After washing, binding of Hb-AGE was assessed by overlaying wells with 1 μg/ml hybridoma antibody 4B5, which binds to glycations(^2), followed by RAMPO. Binding of Aβ was visualized using 500× diluted anti-Aβ antibodies (mouse antibody beta-amyloid Clone 6F/3D #M0872, lot 00003503, DAKOCytomation; β-amyloid (H-43) SC-9129, 200 μg/ml rabbit polyclonal IgG, Santa Cruz Biotechnology) and RAMPO/SWARPO in a 1:1 ratio. Finally, wells were overlayed with OPD/H2O2 solution, and H2SO4, before absorbance readings at 490 nm.

In another assay the target is tPA (Homo sapiens, UniProt P00750). The assay is described as follows: tPA serine protease activity with OVA heated in the presence of compounds (substrate S-2765). In kind it is biochemical. Also on record: purchased Boehringer Ingelheim Actilyse. The following applies: OVA heated with 1 mg/ml compound, 80-, 160- or 320-fold diluted, 100 nM tPA. On the procedure:
For this purpose, the influence of the compounds on heat-denaturation of OVA was analyzed (see above: Thioflavin T fluorescence measurements). Heated OVA at 1 mg/ml in PBS in the presence or absence of 1 mg/ml of the twelve compounds listed in Table 7 in PBS/DMSO (final DMSO concentration 1%) was used 80-fold or 160-fold or 320-fold diluted (final heated OVA concentration and compound concentration was 12.5 or 6.3 or 3.1 μg/ml; final DMSO concentration was 0.013% and 0.006% and 0.003%).

“Also recorded” adds a separate entry of the source.

T5 sequence (P69905 2-142 limits assumed): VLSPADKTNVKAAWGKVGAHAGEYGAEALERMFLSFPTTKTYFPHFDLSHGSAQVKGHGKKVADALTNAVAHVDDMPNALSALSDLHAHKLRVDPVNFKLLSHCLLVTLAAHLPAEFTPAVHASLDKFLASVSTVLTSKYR
T5 sequence (P68871 2-147 limits assumed): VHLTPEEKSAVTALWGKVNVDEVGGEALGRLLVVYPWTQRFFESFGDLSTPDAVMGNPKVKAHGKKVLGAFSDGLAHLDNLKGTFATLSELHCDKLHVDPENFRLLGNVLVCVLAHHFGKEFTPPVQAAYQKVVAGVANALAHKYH
Sequence of tPA (P00750 36-562): as the sequence (P00750 36-562) above
T1 sequence (P69905 2-142 limits assumed): as the sequence (P69905 2-142 limits assumed) above
T1 sequence (P68871 2-147 limits assumed): as the sequence (P68871 2-147 limits assumed) above

For Thioflavin S, the “influence on binding of IgIV to immobilized Hb-AGE” value in [1] is “enhance the binding of IgIV”.
Take `Cc1c(C(=O)O)c(O)cc2c1C(=O)c1c(O)c([C@H]3O[C@H](CO)[C@@H](O)[C@H](O)[C@H]3O)c(O)c(O)c1C2=O` [compound 19]: the “influence on Thioflavin T fluorescence with misfolded OVA” value at heat-denatured ovalbumin is listed as “Inhibition on Thioflavin T fluorescence with misfolded OVA”. Besides, the “influence on tPA/plasminogen activation by pre-formed misfolded OVA” value at tPA/plasminogen [2] is given as “Delayed tPA/plasminogen activation by misfolded OVA”. The “Signal (a.u.)” value on Aβ (Nunc Maxisorp, Aβ 100 μg/ml) is 0.08 a.u; on Aβ (Nunc amino Immobilizer, Aβ 10 μg/ml) it was 0.03 a.u; on Aβ (Nunc amino Immobilizer, Aβ 100 μg/ml), 0.04 a.u; at Hb-AGE [3] (Nunc Maxisorp, Hb-AGE 10 μg/ml) it was 0.16 a.u; on Hb-AGE [3] (Nunc amino Immobilizer, Hb-AGE 1 μg/ml), 0.42 a.u. The “appearance of ovalbumin heated in the presence of compound on TEM image” value on ovalbumin is given as “Background as in Control, but less aggregated. Also”. Further, the “influence on tPA binding to immobilized Hb-AGE” value at Hb-AGE [4] is given as “Stimulated tPA binding to immobilized misfolded protein (Hb-”. The “influence on tPA/plasminogen activation by OVA pre-heated in the presence of compound” value on tPA/plasminogen [5] is “Inhibition of tPA/plasminogen activation by OVA pre-heated”. For the same compound, the “capture of misfolded protein from solution by immobilized compound” value in [6] is “Capture of misfolded protein from solution”.
Take Bucharaine [compound 8]: the “influence on tPA/plasminogen activation by pre-formed misfolded OVA” value on tPA/plasminogen [2] is given as “potent inhibitors of misfolded OVA-triggered plasmin generation; also recorded: fully abolish plasmin activity”. For the same compound, on tPA, the “influence on tPA protease activity of OVA heated in the presence of compound” value is on record as “induces further stimulation of tPA by OVA; also recorded: induce increased tPA activity when combined with ovalbumin before heat-denaturation”. Also, the “appearance of ovalbumin heated in the presence of compound on TEM image” value at ovalbumin is “no large OVA aggregates are seen”.
